Consider 32 compounds from ChEMBL document CHEMBL4342442, “Usnic Acid Enaminone-Coupled 1,2,3-Triazoles as Antibacterial and Antitubercular Agents” (J Nat Prod, 2020).

Common to all, as to format: functional
For assay [1], the system named is Mycobacterium tuberculosis. The experiment in a line: Antitubercular activity against Mycobacterium tuberculosis H37Rv assessed as reduction in microbial growth after 7 days by alamar blue assay. The settings on record: 168 h. (In general: The colour change of resazurin is a common sign of viable cells or microbes.)
Assay [2] has as its system Staphylococcus epidermidis. The experiment in a line: Antibacterial activity against Staphylococcus epidermidis assessed as reduction in microbial growth after 24 hrs by CLSI based microdilution method. In general terms: Broth dilution looks for growth in wells or tubes with falling amounts of substance.
Assay [3] has as its system Bacillus subtilis. Briefly: Antibacterial activity against Bacillus subtilis MTCC 441 assessed as diameter of zone of inhibition at 200 ug/ml after 24 hrs by agar well diffusion method. As to conditions: for zone of inhibition at 200 µg/mL: MTCC 441, 24 h, read-out: DIZ. (In general: Agar diffusion results depend on both activity and mobility in agar.)
Assay [4] concerns Klebsiella pneumoniae. The experiment in a line: Antibacterial activity against Klebsiella pneumoniae MTCC 618 assessed as diameter of zone of inhibition at 200 ug/ml after 24 hrs by agar well diffusion method. As to conditions: for zone of inhibition at 200 µg/mL: MTCC 618, 24 h, read-out: DIZ.
For assay [5], the system named is Bacillus subtilis. Briefly: Antibacterial activity against Bacillus subtilis MTCC 441 assessed as reduction in microbial growth after 24 hrs by CLSI based microdilution method. The settings on record: MTCC 441, 24 h.
In assay [6] the test system is Pseudomonas aeruginosa. Briefly: Antibacterial activity against Pseudomonas aeruginosa MTCC 741 assessed as diameter of zone of inhibition at 200 ug/ml after 24 hrs by agar well diffusion method. As to conditions: for zone of inhibition at 200 µg/mL: MTCC 741, 24 h, read-out: DIZ.
Assay [7] deals with Escherichia coli. The experiment in a line: Antibacterial activity against Escherichia coli MTCC 443 assessed as diameter of zone of inhibition at 200 ug/ml after 24 hrs by agar well diffusion method. The settings on record: for zone of inhibition at 200 µg/mL: MTCC 443, 24 h, read-out: DIZ.
Assay [8] relates to Klebsiella pneumoniae. The experiment in a line: Antibacterial activity against Klebsiella pneumoniae MTCC 618 assessed as reduction in microbial growth after 24 hrs by CLSI based microdilution method. As to conditions: MTCC 618, 24 h.
The subject of assay [9] is Staphylococcus aureus. The experiment in a line: Antibacterial activity against Staphylococcus aureus MTCC 96 assessed as diameter of zone of inhibition at 200 ug/ml after 24 hrs by agar well diffusion method. As to conditions: for zone of inhibition at 200 µg/mL: MTCC 96, 24 h, read-out: DIZ.
Assay [10] deals with Escherichia coli. Briefly: Antibacterial activity against Escherichia coli MTCC 443 assessed as reduction in microbial growth after 24 hrs by CLSI based microdilution method. As to conditions: MTCC 443, 24 h.
Assay [11] has as its system Staphylococcus aureus. Briefly: Antibacterial activity against Staphylococcus aureus MTCC 96 assessed as reduction in microbial growth after 24 hrs by CLSI based microdilution method. As to conditions: MTCC 96, 24 h.
Assay [12] concerns Pseudomonas aeruginosa. The experiment in a line: Antibacterial activity against Pseudomonas aeruginosa MTCC 741 assessed as reduction in microbial growth after 24 hrs by CLSI based microdilution method. As to conditions: MTCC 741, 24 h.
Assay [13] relates to Staphylococcus epidermidis. Briefly: Antibacterial activity against Staphylococcus epidermidis assessed as diameter of zone of inhibition at 200 ug/ml after 24 hrs by agar well diffusion method. The settings on record: for zone of inhibition at 200 µg/mL: read-out: DIZ.

Calls of active or inactive are those of the source.

By MIC is commonly meant the smallest concentration in the dilution series that meets the test's criterion for growth inhibition. `CC(=O)c1c(O)c(C)c(O)c2c1OC1=CC(=O)/C(=C(/C)NCc3cn(CC(=O)c4ccc([N+](=O)[O-])cc4)nn3)C(=O)C12C` (stereo not drawn): the MIC in assay [1] turned out to be 42.6 µM.
On the same count and under the same terms, the same measure for `CC[C@@H](CO)NCCN[C@@H](CC)CO` [ETHAMBUTOL]: 7.6 µM.
Still for that read-out and setting: under `CC(=O)c1c(O)c(C)c(O)c2c1OC1=CC(=O)/C(=C(/C)NCc3cn(CC(=O)c4cccc5ccccc45)nn3)C(=O)C12C` (stereo not drawn) stands 42.2 µM; under `CC(=O)C1=C(O)C=C2Oc3c(C(C)=O)c(O)c(C)c(O)c3C2(C)C1=O` (stereo not drawn), 35.6 µM.
With `CC(=O)c1c(O)c(C)c(O)c2c1OC1=CC(=O)/C(=C(/C)NCc3cn(CC(=O)c4ccccc4)nn3)C(=O)C12C` (stereo not drawn), the MIC in assay [1] came out at 46.1 µM.
On the same count and under the same terms, the same measure for `COc1cccc(C(=O)Cn2cc(CN/C(C)=C3\C(=O)C=C4Oc5c(C(C)=O)c(O)c(C)c(O)c5C4(C)C3=O)nn2)c1` (stereo not drawn): 43.7 µM; for `COc1ccc2cc(C(=O)Cn3cc(CN/C(C)=C4\C(=O)C=C5Oc6c(C(C)=O)c(O)c(C)c(O)c6C5(C)C4=O)nn3)ccc2c1` (stereo not drawn): 40.2 µM.
For the compound `CN[C@@H]1[C@H](O[C@H]2[C@H](O[C@H]3[C@H](O)[C@@H](O)[C@H](N=C(N)N)[C@@H](O)[C@@H]3N=C(N)N)O[C@@H](C)[C@]2(O)C=O)O[C@@H](CO)[C@H](O)[C@H]1O` [STREPTOMYCIN], the MIC in [2] amounted to 4 µM; in the assay on Bacillus subtilis [5] it was 8.1 µM; in the assay with Klebsiella pneumoniae [8], 8.1 µM; with Escherichia coli [10], 8.1 µM; in the assay with Staphylococcus aureus [11], 4 µM; in the assay on Pseudomonas aeruginosa [12] it was 8.1 µM. Moreover, the zone of inhibition at 200 µg/mL with Bacillus subtilis [3] was 24 mm; with Klebsiella pneumoniae [4] it was 26 mm; in the assay on Pseudomonas aeruginosa [6], 28 mm; in the assay with Escherichia coli [7] it was 23 mm; with Staphylococcus aureus [9], 23 mm; in assay [13], 25 mm.
In the case of `CC(=O)c1c(O)c(C)c(O)c2c1OC1=CC(=O)/C(=C(/C)NCc3cn(CC(=O)N4CCN(c5ccccc5)CC4)nn3)C(=O)C12C` (stereo not drawn), the MIC in assay [1] turned out to be 39.9 µM.
Still for that read-out and setting: the same measure for `CC(=O)c1c(O)c(C)c(O)c2c1OC1=CC(=O)/C(=C(/C)NCc3cn(CC(=O)c4ccc5c(c4)Cc4ccccc4-5)nn3)C(=O)C12C` (stereo not drawn): 9.9 µM.
The same measure, in the same setting: under `CC(=O)c1c(O)c(C)c(O)c2c1OC1=CC(=O)/C(=C(/C)NCc3cn(CC(=O)c4ccc(C(F)(F)F)cc4)nn3)C(=O)C12C` (stereo not drawn) stands 41 µM; under `CC(=O)c1c(O)c(C)c(O)c2c1OC1=CC(=O)/C(=C(/C)NCc3cn(CC(=O)c4ccc(Br)s4)nn3)C(=O)C12C` (stereo not drawn), 39.8 µM; under `CC(=O)c1c(O)c(C)c(O)c2c1OC1=CC(=O)/C(=C(/C)NCc3cn(CC(=O)c4nccs4)nn3)C(=O)C12C` (stereo not drawn), 45.5 µM.
Still for that read-out and setting: under `CC(=O)c1c(O)c(C)c(O)c2c1OC1=CC(=O)/C(=C(/C)NCc3cn(CC(=O)c4ccc(C#N)cc4)nn3)C(=O)C12C` (stereo not drawn) stands 44.1 µM; under `CC(=O)c1c(O)c(C)c(O)c2c1OC1=CC(=O)/C(=C(/C)NCc3cn(CC(=O)N4CCN(c5ccccc5F)CC4)nn3)C(=O)C12C` (stereo not drawn), 9.7 µM.
For the compound `CC(=O)c1c(O)c(C)c(O)c2c1OC1=CC(=O)/C(=C(/C)NCc3cn(CC(=O)c4ccc(Cl)s4)nn3)C(=O)C12C` (stereo not drawn), the minimum inhibitory concentration (MIC) in [1] stood at 42.9 µM.
On to `CC(=O)c1c(O)c(C)c(O)c2c1OC1=CC(=O)/C(=C(/C)NCc3cn(CC(=O)c4ccc(Cl)cc4)nn3)C(=O)C12C` (stereo not drawn), for which the MIC in assay [1] was 10.8 µM.
As for `CC(=O)c1c(O)c(C)c(O)c2c1OC1=CC(=O)/C(=C(/C)NCc3cn(CC(=O)c4ccc(Cl)c(Cl)c4)nn3)C(=O)C12C` (stereo not drawn), the MIC in assay [1] came out at 40.9 µM.
Same read-out and setting: under `CC(=O)c1c(O)c(C)c(O)c2c1OC1=CC(=O)/C(=C(/C)NCc3cn(CC(=O)N4CCN(C(=O)OC(C)(C)C)CC4)nn3)C(=O)C12C` (stereo not drawn) stands 38.4 µM.
Consider `CC(=O)c1c(O)c(C)c(O)c2c1OC1=CC(=O)/C(=C(/C)NCc3cn(CC(=O)c4ccc(OC(F)(F)F)cc4)nn3)C(=O)C12C` (stereo not drawn), for which, in [1], the MIC came to 39.9 µM.
Consider `CC(=O)c1c(O)c(C)c(O)c2c1OC1=CC(=O)/C(=C(/C)NCc3cn(CC(=O)N4CCN(c5ccccc5Cl)CC4)nn3)C(=O)C12C` (stereo not drawn), for which the minimal inhibitory concentration (MIC) in assay [2] was over 350 µM; in the assay with Bacillus subtilis [5] it was 302 µM; in the assay with Klebsiella pneumoniae [8], over 350 µM; with Escherichia coli [10], over 350 µM; in the assay on Staphylococcus aureus [11], over 350 µM; in the assay with Pseudomonas aeruginosa [12] it was over 350 µM. Also, in assay [1], the MIC was 37.8 µM.
Consider `COc1ccc(C(=O)Cn2cc(CN/C(C)=C3\C(=O)C=C4Oc5c(C(C)=O)c(O)c(C)c(O)c5C4(C)C3=O)nn2)cc1` (stereo not drawn), for which the MIC in [1] was 43.7 µM.
The same measure, in the same setting: under `CC(=O)c1c(O)c(C)c(O)c2c1OC1=CC(=O)/C(=C(/C)NCc3cn(CC(=O)N4CCN(c5ccc(C(F)(F)F)cc5)CC4)nn3)C(=O)C12C` (stereo not drawn) stands 36 µM.
`CC1(C)S[C@@H]2[C@H](NC(=O)Cc3ccccc3)C(=O)N2[C@H]1C(=O)O` [PENICILLIN G]: the minimum inhibitory concentration (MIC) in assay [2] is 7 µM; with Bacillus subtilis [5] it was 3.5 µM; with Klebsiella pneumoniae [8], 27.8 µM; with Escherichia coli [10] it was 27.8 µM; with Staphylococcus aureus [11], 3.5 µM; with Pseudomonas aeruginosa [12] it was 27.8 µM. For the same compound, the zone of inhibition at 200 µg/mL in the assay on Bacillus subtilis [3] was 28 mm; in the assay with Klebsiella pneumoniae [4], 25 mm; with Pseudomonas aeruginosa [6], 23 mm; in the assay with Escherichia coli [7], 24 mm; in the assay on Staphylococcus aureus [9], 28 mm; in assay [13], 26 mm.
Consider `CC(=O)c1c(O)c(C)c(O)c2c1OC1=CC(=O)/C(=C(/C)NCc3cn(CC(=O)c4ccc(F)cc4)nn3)C(=O)C12C` (stereo not drawn), for which the MIC is over 350 µM in [2]; 347 µM in the assay with Bacillus subtilis [5]; over 350 µM in the assay on Klebsiella pneumoniae [8]; over 350 µM in the assay on Escherichia coli [10]; over 350 µM with Staphylococcus aureus [11]; over 350 µM with Pseudomonas aeruginosa [12]. The MIC in [1] came to 11.2 µM.
On to `CC(=O)c1c(O)c(C)c(O)c2c1OC1=CC(=O)/C(=C(/C)NCc3cn(CC(=O)N4CCSCC4)nn3)C(=O)C12C` (stereo not drawn), for which the minimum inhibitory concentration (MIC) (in [2]; in the assay on Bacillus subtilis [5]; with Klebsiella pneumoniae [8]; in the assay on Escherichia coli [10]; with Staphylococcus aureus [11]; in the assay with Pseudomonas aeruginosa [12]) was over 350 µM each time. Besides, in [1], the minimal inhibitory concentration (MIC) amounted to 44 µM. Moreover, the “diameter of the inhibition zone (DIZ)” value (in the assay on Bacillus subtilis [3]; in the assay with Klebsiella pneumoniae [4]; in the assay with Pseudomonas aeruginosa [6]; in the assay on Escherichia coli [7]; with Staphylococcus aureus [9]; in assay [13]) was “inactive” in each case.
Take `CC(=O)c1c(O)c(C)c(O)c2c1OC1=CC(=O)/C(=C(/C)NCc3cn(CC(=O)c4cc5ccccc5s4)nn3)C(=O)C12C` (stereo not drawn): the minimum inhibitory concentration (MIC) in assay [1] is 41.8 µM.
On the same count and under the same terms, under `CC(=O)c1c(O)c(C)c(O)c2c1OC1=CC(=O)/C(=C(/C)NCc3cn(CC(=O)c4cccs4)nn3)C(=O)C12C` (stereo not drawn) stands 45.6 µM.
Still for that read-out and setting: under `CC(=O)c1c(O)c(C)c(O)c2c1OC1=CC(=O)/C(=C(/C)NCc3cn(CC(=O)c4c5ccccc5cc5ccccc45)nn3)C(=O)C12C` (stereo not drawn) stands 9.7 µM; under `CC(=O)c1c(O)c(C)c(O)c2c1OC1=CC(=O)/C(=C(/C)NCc3cn(CC(=O)c4ccc(-c5ccccc5)cc4)nn3)C(=O)C12C` (stereo not drawn), 48.2 µM; under `CC(=O)c1c(O)c(C)c(O)c2c1OC1=CC(=O)/C(=C(/C)NCc3cn(CC(=O)N4CCN(C/C=C/c5ccccc5)CC4)nn3)C(=O)C12C` (stereo not drawn), 37.5 µM.
The same measure, in the same setting: under `CC(=O)c1c(O)c(C)c(O)c2c1OC1=CC(=O)/C(=C(/C)NCc3cn(CC(=O)N4CCN(c5ccccn5)CC4)nn3)C(=O)C12C` (stereo not drawn) stands 39.8 µM.
